Experimental data published in ChEMBL document CHEMBL3286201, “Antileishmanial activity of a series of N²,N⁴-disubstituted quinazoline-2,4-diamines” (J Med Chem, 2014).

Legend:
[1] = Aqueous solubility of the compound at pH 7.4; type: physicochemical; settings: buffer
[2] = Distribution coefficient, log D of the compound at pH 3; type: physicochemical; settings: octanol/water
[3] = Selectivity index, ratio of EC50 for mouse J774A1 cells to EC50 for intracellular amastigote stage of Leishmania donovani MHOM/ET/67/L82; type: toxicity, cell-based, J774.A1; settings: read-out: Ratio EC50
[4] = Cytotoxicity against mouse J774A1 cells after 72 hrs by MTT assay; type: cell-based; settings: J774.A1, 72 h
[5] = test system: Leishmania amazonensis; assay: Antileishmanial activity against intracellular amastigote stage of Leishmania amazonensis LV78 infected in mouse J774A1 cells by colorimetric assay; type: functional, organism-based; settings: LV78, J774.A1
[6] = pampa, pH 7.4
Description: Passive transcellular permeability of the compound at pH 7.4 by PAMPA

[7] = test system: Leishmania donovani; assay: Antileishmanial activity against intracellular amastigote stage of Leishmania donovani MHOM/ET/67/L82 infected in mouse J774A1 cells by colorimetric assay; type: functional, organism-based; settings: MHOM/ET/67/L82, J774.A1
[8] = Aqueous solubility of the compound at pH 2; type: physicochemical; settings: buffer
[9] = pampa, pH 4
Description: Passive transcellular permeability of the compound at pH 4 by PAMPA

[10] = Distribution coefficient, log D of the compound at pH 7.4; type: physicochemical; settings: octanol/water

Compound	solubility [1] [µM]	logD [2]	selectivity ratio [3]	EC50 [4] [µM]	EC50 [5] [µM]	permeability [6] [×10⁻⁶ cm/s]	EC50 [7] [µM]	solubility [8] [µM]	permeability [9] [×10⁻⁶ cm/s]	logD [10]
CC(C)Nc1nc(N(C)C)c2ccccc2n1	≤ 10	1.64	> 3.7	> 33	19	1120	8.9	≥ 30	72.3	3.13
COc1cc([C@@H]2c3cc4c(cc3[C@H](O)[C@H]3COC(=O)[C@H]23)OCO4)cc(OC)c1OC [PODOFILOX]	–	–	–	0.25	–	–	–	–	–	–
c1ccc(CNc2nc(NCc3ccccc3)c3ccccc3n2)cc1	≤ 5	–	8.2	5.5	1.4	–	0.67	≤ 20	–	–
OCCNc1nc(NCc2ccco2)c2ccccc2n1	≤ 20	1.48	> 1.3	> 33	> 50	1130	25	≥ 30	26.4	2.19
COc1cccc2c(NCc3ccco3)nc(NC(C)C)nc12	≤ 20	2.99	9.4	30	7.3	1060	3.2	≥ 30	38.4	3.4
CCOC(=O)CNc1nc(NC(C)C)nc2ccccc12	≤ 20	1.73	> 4.8	> 33	20	744	6.9	≥ 30	38.8	2.54
COc1ccc2c(NCc3ccco3)nc(NC(C)C)nc2c1	≤ 20	3.11	13	16	10	1330	1.2	≥ 30	59.2	3.7
CC(C)Nc1nc(NCc2ccco2)c2ccccc2n1	≥ 30	2.18	6.8	17	3.7	883	2.5	≥ 30	62.2	3.15
CC(C)Nc1nc(NCc2ccco2)c2ccc(Cl)cc2n1	≤ 20	2.51	> 11	> 100	23	1380	9	≥ 30	103	3.91
CSCCNc1nc(NC(C)C)nc2ccccc12	≤ 20	2.06	4.7	20	5.1	1480	4.3	≥ 30	28.8	3.02
Cc1cccc2c(NCc3ccco3)nc(NC(C)C)nc12	≤ 20	1.57	> 7.9	> 33	4.4	666	4.2	≥ 30	45.9	3.55
CC(C)Nc1nc(NCc2ccco2)c2cc(Cl)ccc2n1	≤ 20	2.6	> 13	> 33	25	1630	2.6	≥ 30	170	3.99
CC(C)Nc1nc(NCc2ccco2)c2c(Cl)cccc2n1	≤ 10	2.62	11	25	12	1240	2.3	≥ 30	169	4.44
CCCCNc1nc(NCCCC)c2ccccc2n1	≤ 10	2.91	3	5.4	2.1	880	1.8	≥ 30	485	3.89
CC(C)Nc1nc(NCC(F)(F)F)c2ccccc2n1	≥ 30	2.4	> 8.9	> 33	7.6	780	3.7	≥ 30	19.7	3.19
c1ccc(CNc2nc(Nc3ccccc3)c3ccccc3n2)cc1	≤ 5	2.67	20	5.2	2.2	663	0.26	≥ 30	412	4.25
CC(C)Nc1nc(NCc2ccco2)c2cccc(Cl)c2n1	≤ 5	2.38	> 7.5	> 33	18	1330	4.4	≥ 30	67.6	3.96
CCCCNc1nc(NCc2ccccc2)c2ccccc2n1	≤ 10	–	7.8	5.1	1.8	–	0.65	–	–	–
CC(C)Nc1nc(NC2CCCCC2)c2ccccc2n1	≤ 20	–	–	–	> 50	–	> 50	–	–	–
c1ccc(CNc2nc(Nc3ccccc3)nc3ccccc23)cc1	≤ 5	2.78	11	6.8	2.6	1480	0.64	≤ 5	271	4.17
Cc1ccc2nc(NC(C)C)nc(NCc3ccco3)c2c1	≤ 20	1.55	> 7	> 33	15	789	4.7	≥ 30	67.2	3.63
Cc1cccc2nc(NC(C)C)nc(NCc3ccco3)c12	≤ 10	2.44	21	20	3.6	812	0.95	≥ 30	45.9	3.55
COc1cccc2nc(NC(C)C)nc(NCc3ccco3)c12	≤ 20	2.53	19	18	2.7	624	0.97	≥ 30	87	3.35
CNc1nc(NCc2ccccc2)c2ccccc2n1	≥ 30	2.11	12	18	13	–	1.5	≥ 30	–	3.14
